Test results from patent US20220387276A1, “Composition Comprising Oils, Free Fatty Acids And Squalene” (Clariant International Ltd., priority 2021, published 2022).

Type: physicochemical
Description: The oxidative stability at 90° C. was determined according to DIN EN ISO 6886 for the blend of Example 1 and compared with the oxidative stability of squalene.

SMILES: CC(C)=CCC/C(C)=C/CC/C(C)=C/CC/C=C(\C)CC/C=C(\C)CCC=C(C)C [squalene]
- Induction time (oxidative stability): 4.84 h
